This assay has as its target cAMP and cAMP-inhibited cGMP 3',5'-cyclic phosphodiesterase 10A (Homo sapiens, UniProt Q9Y233). Nature of the assay: PDE10A assay. In short, it runs like this:
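Human PDE10A (2 ng/well) preincubated 15 min RT with compound in HEPES pH 7.5, 10 mM MgCl2, BSA, then reacted 15 min with 50 nM [3H]cGMP/cGMP substrate. Stopped with Y-Si SPA beads; bound radioactivity counted, IC50 from four-parameter logistic, pIC50 = −log10(IC50).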

For 25 molecules, IC50 results are on record in BindingDB's records for doi:10.1007/s10822-022-00478-x (Roche Innovation Center Basel, F. Hoffmann-La Roche Ltd., 2022).

Broadly, the IC50 is the concentration at which inhibition is half-maximal. A higher IC50 goes with weaker potency.

cAMP and cAMP-inhibited cGMP 3',5'-cyclic phosphodiesterase 10A, sequence (Q9Y233 as listed by the source): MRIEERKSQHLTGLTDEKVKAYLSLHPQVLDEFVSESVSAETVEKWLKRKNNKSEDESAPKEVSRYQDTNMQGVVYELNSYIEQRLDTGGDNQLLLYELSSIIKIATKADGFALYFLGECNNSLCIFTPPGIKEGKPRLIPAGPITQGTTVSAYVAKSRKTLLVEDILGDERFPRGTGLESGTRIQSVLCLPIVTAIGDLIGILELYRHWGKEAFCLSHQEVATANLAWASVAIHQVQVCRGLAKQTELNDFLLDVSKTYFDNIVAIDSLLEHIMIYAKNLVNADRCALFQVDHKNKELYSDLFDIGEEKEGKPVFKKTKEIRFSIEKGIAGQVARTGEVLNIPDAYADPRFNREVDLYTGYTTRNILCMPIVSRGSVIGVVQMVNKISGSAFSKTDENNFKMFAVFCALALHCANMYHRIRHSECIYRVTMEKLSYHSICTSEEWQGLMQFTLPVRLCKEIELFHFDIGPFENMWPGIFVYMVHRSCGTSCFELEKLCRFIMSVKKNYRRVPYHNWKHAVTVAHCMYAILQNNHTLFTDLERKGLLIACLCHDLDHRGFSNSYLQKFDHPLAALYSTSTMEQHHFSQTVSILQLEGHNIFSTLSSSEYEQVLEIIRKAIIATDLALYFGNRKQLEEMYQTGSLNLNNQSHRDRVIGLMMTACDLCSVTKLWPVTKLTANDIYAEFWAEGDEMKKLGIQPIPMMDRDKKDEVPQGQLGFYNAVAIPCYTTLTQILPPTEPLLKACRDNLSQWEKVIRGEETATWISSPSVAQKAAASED

In the case of `Cc1c(Cl)cc(Cl)c2nc(CCc3cn4c(n3)SCC4)nn12` [Roche-Dataset for PDE10A, Compound 760], the IC50 came to 27 nM.
The same measure for `Cc1c(Cl)cc(Cl)c2nc(CCc3nn(C)cc3Cl)nn12` [Roche-Dataset for PDE10A, Compound 861]: 333 nM; for `CNC(=O)c1cc(CCC(=O)O)ccc1NC(=O)c1nc(C2CC2)cnc1Nc1cncnc1` [US8703768, 328]: 0.39 nM; for `O=C(Nc1conc1-c1ccccc1)c1nc(C2CC2)ccc1Nc1cncnc1` [Roche-Dataset for PDE10A, Compound 935]: 6.91 nM.
Regarding `O=C(Nc1cc(Cl)ncc1Br)c1ccc2cc(-c3ccccc3)nn2c1` [Roche-Dataset for PDE10A, Compound 399], the IC50 was 354 nM.
For the molecule `CCN(CC)C(=O)c1c(C)noc1C(=O)Nc1ccn2nc(-c3ccccc3)nc2c1` [Roche-Dataset for PDE10A, Compound 258], half-maximal inhibition (IC50) required 3120 nM.
With `Cn1ncc(C(=O)O)c1C(=O)Nc1ccn2nc(-c3cccc(F)c3)nc2c1` [Roche-Dataset for PDE10A, Compound 380], the IC50 turned out to be 25 nM.
The same measure for `CCN(C)C(=O)c1cnn(C)c1C(=O)Nc1ccn2cc(-c3cccc(OCCO)c3)nc2n1` [Roche-Dataset for PDE10A, Compound 39]: 8.81 nM; for `CN(CCO)C(=O)c1cnn(C)c1C(=O)Nc1ccn2nc(N3CCOCC3)nc2c1` [Roche-Dataset for PDE10A, Compound 276]: 20 nM.
As for `O=C(NCc1cc(F)cc(F)c1)c1nc(C2CC2)cnc1Nc1cncnc1` [Roche-Dataset for PDE10A, Compound 783], inhibition was half-maximal at 1060 nM (IC50).
Molecule `Cn1ncc(C(=O)N2CCC2)c1C(=O)Nc1ccn(CCC#N)n1` [Roche-Dataset for PDE10A, Compound 1114] came in with an IC50 of 3150 nM.
The same measure for `CC(C)c1ncc(Nc2ccon2)c(C(=O)N[C@@H]2CCN(c3ccc(Cl)cn3)C2)n1` [Roche-Dataset for PDE10A, Compound 212]: 232 nM; for `O=C(Nc1ccc(-c2ccccn2)s1)c1nc(C2CC2)ccc1Nc1cncnc1` [US8470820, 50]: 1.43 nM; for `Cc1c(Cl)cc(Cl)c2nc(CCc3nc4ccccc4n3C)nn12` [Roche-Dataset for PDE10A, Compound 497]: 61 nM.
Take `CCOC(=O)c1cnn(C)c1C(=O)Nc1ccn2nc(N(C)C)nc2c1` [Roche-Dataset for PDE10A, Compound 549]: the IC50 turned out to be 314 nM.
Molecule `Cn1ncc(C(=O)N2CCC2)c1C(=O)Nc1ccn(Cc2ccncc2)n1` [Roche-Dataset for PDE10A, Compound 978] yielded an IC50 of 192 nM.
The same measure for `Cc1ncc(C)n2nc(/C=C/c3ncn(-c4ccccc4)n3)nc12` [Roche-Dataset for PDE10A, Compound 629]: 162 nM.
The same measure for `Cc1cc(C)n2nc(CCc3ncnn3C)nc2n1` [Roche-Dataset for PDE10A, Compound 1159]: 10000 nM; for `Cn1ncc(C(=O)N2CCC2)c1C(=O)Nc1ccn2nc(-c3ccccc3OCF)nc2c1` [Roche-Dataset for PDE10A, Compound 71]: 1.73 nM; for `Cc1nn2ccc(CCc3nc(-c4ccccc4)cn3C)nc2c1C` [US10399985, Example 16]: 4.89 nM.
On to `Cn1ncc2c1C(=O)N(c1ccn3nc(-c4cccc(F)c4)nc3c1)C2=O` [Roche-Dataset for PDE10A, Compound 217], for which inhibition was half-maximal at 51 nM (IC50).
The molecule `Cn1nc(NC(=O)c2nc(C3CC3)ccc2Nc2cncnc2)cc1-c1ccccn1` [US8470820, 63] gave a concentration for half-maximal inhibition (IC50) of 126 nM.
For the molecule `O=C(c1nc(C2CC2)cnc1Nc1cncnc1)N1CCN(C2CCCC2)CC1` [Roche-Dataset for PDE10A, Compound 1039], the half-inhibitory concentration (IC50) is 10000 nM.
The same measure for `CC(=O)c1cc(NC(=O)c2nc(C3CC3)cnc2Nc2cncnc2)ccc1F` [Roche-Dataset for PDE10A, Compound 869]: 9.64 nM.
In turn, `COc1cc(NC(=O)c2ccc3cc(-c4ccccc4)nn3c2)ccn1` [Roche-Dataset for PDE10A, Compound 365] yielded an IC50 of 144 nM.
